From US20200087314A1, “HISTONE DEACETYLASE INHIBITORS” (BIOMARIN PHARMACEUTICAL INC., priority 2016, published 2020)
Counter-ions that a name gives are not always drawn.

Tested on: Frataxin (FXN) mRNA expression
Assay: Effect of HDAC inhibitors on frataxin (FXN) mRNA expression in iPSC derived neuronal cells (qRT-PCR)
Assay type: cell-based
Conditions: iPSC derived neuronal cells differentiated 16 days, compound incubated 24 h
Description: Effect of HDAC Inhibitors on Frataxin (FXN) mRNA Expression
Method: mRNA quantification of compound-treated iPSC derived neuronal cells Neuronal stem cells were cultured in Neurobasal A medium (Life technologies #10888022) supplemented with N2, B27 (Life technologies #17502-048 and #17504-044), L-glutamine (Life technologies #25030081), supplemented with 20 ng/ml EGF (R&D Systems #236-EG) and 20 ng/ml bFGF (BioPioneer # HRP-0011). Neuronal differentiation was initiated by removing growth factors and culturing cells in Neurobasal A with N2 and B27. Cells were allowed to differentiate for 16 days. HDAC inhibitory compound was then added and incubate for 24 h. RNA isolation was performed using the RNeasy Plus mini kit (QIAgen #74134) using a QIAcube instrument per manufacturer's instructions. qRT-PCR was performed using qScript One-Step SYBR Green qRT-PCR Kit (Quanta Biosciences 170-8893BR) with the following conditions: 20 minutes at 50° C., 5 minutes at 95° C., and then 40 cycles of 20 seconds at 95° C., 20 seconds at 55° C., 30 seconds at 72° C. The primer sequences to detect expression of FXN were: 5′-[…]-3′ and 5′-[…]-3′.
Data for additional compounds for iPSC fold inductions and cLogP are shown in Table 4 The ranges reported for cLogP refer to the following. A<1, 1<B<2, 2<C<3, 3<D<5, E>5. NA refers to “not available.”

Row | SMILES | Fold Induction
1 | CC1(C)CN(CC2CC2)CCN1Cc1ccc(C(=O)Nc2ccccc2N)cc1 [Compound 491, N-(2-aminophenyl)-4-((4-(cyclopropylmethyl)-2,2-dimethylpiperazin-1-yl)methyl)benzamide] | 1.7
2 | CC(C)=CC1CCN(Cc2ccc(C(=O)Nc3ccccc3N)cc2)CC1 [Compound 472, N-(2-aminophenyl)-4-((4-(2-methylprop-1-en-1-yl)piperidin-1-yl)methyl)benzamide] | 1.5
3 | C[C@@H]1CN(Cc2ccc(C(=O)Nc3ccccc3N)cc2)[C@@H](C)CN1CC1CC1 (racemic) [Compound 477, N-(2-aminophenyl)-4-(((2S,5R)-4-(cyclopropylmethyl)-2,5-dimethylpiperazin-1-yl)methyl)benzamide] | 1.8
4 | CC1(C)CN(Cc2ccc(C(=O)Nc3ccccc3N)cc2)CCN1CC1CC1 [Compound 483, N-(2-aminophenyl)-4-((4-(cyclopropylmethyl)-3,3-dimethylpiperazin-1-yl)methyl)benzamide] | 1.7
5 | Nc1ccccc1NC(=O)c1ccc(CN2CCCN(CC3CC3)CC2)cc1 [Compound 485, N-(2-aminophenyl)-4-((4-(cyclopropylmethyl)-1,4-diazepan-1-yl)methyl) benzamide trihydrochloride] | 2.2
6 | CC1(C)CC(Cc2ccc(C(=O)Nc3ccccc3N)cc2)CCN1 (stereo not shown) [Compound 359, N-(2-aminophenyl)-4-((2,2-dimethylpiperidin-4-yl)methyl)benzamide] | 1.9
7 | C[C@@H]1CN(CC2CC2)C[C@H](C)N1Cc1ccc(C(=O)Nc2ccccc2N)cc1 [Compound 489, N-(2-aminophenyl)-4-(((2R,6S)-4-(cyclopropylmethyl)-2,6-dimethylpiperazin-1-yl)methyl)benzamide] | 1.5
8 | CC(C)(O)CC1CCN(Cc2ccc(C(=O)Nc3ccccc3N)cc2)CC1 [Compound 181, N-(2-aminophenyl)-4-((4-(2-hydroxy-2-methylpropyl)piperidin-1-yl)methyl)benzamide] | 1.5
9 | Cl.Cl.Cl.Nc1ccccc1NC(=O)c1ccc(CN2CCN(CC3CC3)CC2)cc1 [Compound 147, N-(2-aminophenyl)-4-((4-(cyclopropylmethyl)piperazin-1-yl)methyl)benzamide] | 1.8
10 | CC(C)(O)CN1CCC(Cc2ccc(C(=O)Nc3ccccc3N)cc2)CC1(C)C (stereo not shown) [Compound 357, N-(2-aminophenyl)-4-((1-(2-hydroxy-2-methylpropyl)-2,2-dimethylpiperidin-4-yl)methyl)benzamide] | 1.7
11 | CC(C)(O)CN1CCN(Cc2ccc(C(=O)Nc3ccccc3N)cc2)CC1(C)C [Compound 484, N-(2-aminophenyl)-4-((4-(2-hydroxy-2-methylpropyl)-3,3-dimethylpiperazin-1-yl)methyl)benzamide] | 1.6
12 | C[C@H]1CN(CC(C)(C)O)CCN1Cc1ccc(C(=O)Nc2ccccc2N)cc1 [Compound 482, (S)-N-(2-aminophenyl)-4-((4-(2-hydroxy-2-methylpropyl)-2-methylpiperazin-1-yl)methyl)benzamide] | 1.7
13 | C[C@@H]1CN(Cc2ccc(C(=O)Nc3ccccc3N)cc2)CCN1CC1CC1 [Compound 479, (R)-N-(2-aminophenyl)-4-((4-(cyclopropylmethyl)-3-methylpiperazin-1-yl)methyl)benzamide] | 2.2
14 | CC(C)(O)CN1CCN(Cc2ccc(C(=O)Nc3ccccc3N)cc2)CC1.Cl.Cl.Cl [Compound 146, N-(2-aminophenyl)-4-((4-(2-hydroxy-2-methylpropyl)piperazin-1-yl)methyl)benzamide] | 1.8
15 | CC(C)(O)CN1CCC(Cc2ccc(C(=O)Nc3ccc(F)cc3N)cc2)CC1 [Compound 161, N-(2-amino-4-fluorophenyl)-4-((1-(2-hydroxy-2-methylpropyl)piperidin-4-yl)methyl)benzamide] | 1.2
16 | C[C@@H]1CN(Cc2ccc(C(=O)Nc3ccccc3N)cc2)CCN1CC(C)(C)O [Compound 480, (R)-N-(2-aminophenyl)-4-((4-(2-hydroxy-2-methylpropyl)-3-methylpiperazin-1-yl)methyl)benzamide] | 2.0
17 | C[C@@H]1CN(Cc2ccc(C(=O)Nc3ccccc3N)cc2)C[C@H](C)N1CC1CC1 [Compound 487, N-(2-aminophenyl)-4-(((3R,5S)-4-(cyclopropylmethyl)-3,5-dimethylpiperazin-1-yl)methyl)benzamide] | 1.3

Row | SMILES | Fold Induction
18 | Cl.Cl.Nc1ccccc1NC(=O)c1ccc(CN2CCC3(CCCCC3)CC2)cc1 [Compound 174, 4-((3-azaspiro[5.5]undecan-3-yl)methyl)-N-(2-aminophenyl)benzamide] | 1.1
19 | Nc1ccccc1NC(=O)c1ccc(CC2CCN(CC34CC5CC(CC(C5)C3)C4)CC2)cc1 [Compound 354, 4-((1-(((3r,5r,7r)-adamantan-1-yl)methyl)piperidin-4-yl)methyl)-N-(2-aminophenyl)benzamide] | 1.9
20 | CC(C)(C)CN1CCC(Cc2ccc(C(=O)Nc3ccc(F)cc3N)cc2)CC1 [Compound 162, N-(2-amino-4-fluorophenyl)-4-((1-neopentylpiperidin-4-yl)methyl)benzamide] | 1.3
21 | C[C@@H]1CN(CC(C)(C)O)C[C@H](C)N1Cc1ccc(C(=O)Nc2ccccc2N)cc1 [Compound 490, N-(2-aminophenyl)-4-(((2R,6S)-4-(2-hydroxy-2-methylpropyl)-2,6-dimethylpiperazin-1-yl)methyl)benzamide] | 1.4
22 | C[C@H]1CN(CC2CC2)CCN1Cc1ccc(C(=O)Nc2ccccc2N)cc1 [Compound 481, (S)-N-(2-aminophenyl)-4-((4-(cyclopropylmethyl)-2-methylpiperazin-1-yl)methyl)benzamide] | 1.6
23 | C[C@@H]1CN(Cc2ccc(C(=O)Nc3ccccc3N)cc2)[C@@H](C)CN1CC(C)(C)O (racemic) [Compound 478, N-(2-aminophenyl)-4-(((2S,5R)-4-(2-hydroxy-2-methylpropyl)-2,5-dimethylpiperazin-1-yl)methyl)benzamide] | 2.1
24 | C[C@@H]1CN(Cc2ccc(C(=O)Nc3ccccc3N)cc2)C[C@H](C)N1CC(C)(C)O [Compound 488, N-(2-aminophenyl)-4-(((3R,5S)-4-(2-hydroxy-2-methylpropyl)-3,5-dimethylpiperazin-1-yl)methyl)benzamide] | 1.5
25 | Nc1cc(F)ccc1NC(=O)c1ccc(CC2CN(CC3CC3)C2)cc1 [Compound 169, N-(2-amino-4-fluorophenyl)-4-((1-(cyclopropylmethyl)azetidin-3-yl)methyl)benzamide] | 1.3
26 | Nc1ccccc1NC(=O)c1ccc(CN2CC3(C2)CN(CC2CC2)C3)cc1 [Compound 238, N-(2-aminophenyl)-4-((6-(cyclopropylmethyl)-2,6-diazaspiro[3.3]heptan-2-yl)methyl)benzamide] | 1.5
27 | Nc1ccccc1NC(=O)c1ccc(CC2CCN(CC3CC3)C2)cc1 (stereo not shown) [Compound 555, N-(2-aminophenyl)-4-((1-(cyclopropylmethyl)pyrrolidin-3-yl)methyl)benzamide] | 1.11
28 | CC(C)(O)CN1CCCC(Cc2ccc(C(=O)Nc3ccccc3N)cc2)CC1.Cl.Cl (stereo not shown) [Compound 379, N-(2-aminophenyl)-4-((1-(2-hydroxy-2-methylpropyl)azepan-4-yl)methyl)benzamide dihydrochloride] | 2.1
29 | CC1(C)CC(Cc2ccc(C(=O)Nc3ccccc3N)cc2)CCN1CC1CC1 (stereo not shown) [Compound 356, N-(2-aminophenyl)-4-((1-(cyclopropylmethyl)-2,2-dimethylpiperidin-4-yl)methyl)benzamide] | 2.0
30 | Nc1ccccc1NC(=O)c1ccc(CN2CC3(CNC3)C2)cc1 [Compound 241, 4-((2,6-diazaspiro[3.3]heptan-2-yl)methyl)-N-(2-aminophenyl)benzamide] | 1.9
31 | CC(C)(O)CN1CCCN(Cc2ccc(C(=O)Nc3ccccc3N)cc2)CC1 [Compound 486, N-(2-aminophenyl)-4-((4-(2-hydroxy-2-methylpropyl)-1,4-diazepan-1-yl)methyl) benzamide] | 1.9
32 | CC1(C)CCN(Cc2ccc(C(=O)Nc3ccccc3N)cc2)CC1.Cl.Cl [Compound 172, N-(2-aminophenyl)-4-((4,4-dimethylpiperidin-1-yl)methyl)benzamide] | 1.4
33 | Cl.Cl.Nc1ccccc1NC(=O)c1ccc(CN2CCCCC2)cc1 [Compound 171, N-(2-aminophenyl)-4-(piperidin-1-ylmethyl)benzamide] | 0.9
34 | Nc1ccccc1NC(=O)c1ccc(CN2CCC3(CC2)COC3)cc1 [Compound 175, 4-((2-oxa-7-azaspiro[3.5]nonan-7-yl)methyl)-N-(2-aminophenyl)benzamide] | 1.5
